Experimental data taken from article PMC11477000, “Enantioselective Binding of Proton Pump Inhibitors to Alpha1-Acid Glycoprotein and Human Serum Albumin—A Chromatographic, Spectroscopic, and In Silico Study” (International Journal of Molecular Sciences, 2024).
“And” between values parts separate entries of the source, which are not always exact repeats. Equal values may be shown once. Read-outs that look alike come from different tables or passages of the source.

Legend:
[1] = system: α1-acid glycoprotein (AGP); assay: Bound percentage by HPLC on AGP column, extrapolation to zero organic modifier; assay type: in vitro ADME, human; settings: for Bound percentage (b%), average: average of IPA, EtOH, MeOH
Protocol: (§1) Chromatographic columns containing proteins can be used to determine the percentage of drug binding. A plot of the natural logarithm of the retention factors against the proportion of organic modifiers was created. […] The intercept of these linear equations can be used to calculate the bound percentage according to Equation (4) (see in Section 3.2).
Chromatographic measurements were carried out on two separate HPLC systems. The AGP binding study was performed on a Waters 2695e chromatographic system paired with a Waters 2996 PDA detector, controlled by Empower 3 FR5 (Waters Corp., Milford, MA, USA), while the HSA binding study was performed on an Agilent 1100 HPLC system, consisting of an inline degasser (G1322A), a quaternary pump (G1311A), an automatic injector (G1329A) paired with sample thermostat (G1330A), a column thermostat (G1316A), and a diode array detector (G1315A) with Agilent Chemstation B04.03-SP2 software (Agilent, Bronnwald, Germany). For the binding studies, two protein-based chiral stationary phases were utilized. The chromatographic binding study for AGP was conducted on a ChromTech Chiral-AGP column (150 mm × 4.0 mm; ChromTech Ltd., Congleton, UK), while the binding study for HSA was performed on a Daicel Chiralpak HSA column (50 mm × 4.0 mm; Daicel Corp., Osaka, Japan). The detection wavelength was 210 nm for all measurements. The stock solutions of PPIs were prepared at a concentration of 1 mg/mL in MeOH. Subsequent dilutions were prepared using water. The injected samples were mixed and diluted from the stock solutions. The final concentration for the eutomer was 0.2 mg/mL, and for the distomer, it was 0.1 mg/mL. A volume of 2 μL was injected. To mitigate the instability of PPIs in aqueous solutions, the samples were kept at a temperature of 4 °C. […] After 24 h, new samples were prepared for injection. Chromatographic parameters were calculated based on the following equations. The retention factor (k) was calculated as:(1) k=(tr−t0)/t0 where tr is the retention time of the investigated analyte, and t0 is the dead time, determined as the first peak appearance in the chromatogram. Resolution was calculated based on the following equation:(2) Rs=2(t2−t1)/(w1+w2) where t2 and t1 are the retention times of the second and first eluted enantiomers, respectively, while w is the peak width. The separation factor (α) was calculated as follows:(3) α=k2/k1 where k1 and k2 are the retention factors of the first- and second-eluting enantiomers, respectively. The k values were also used to calculate the protein-bound percentage (b%) using Equation (4):(4) b%=k/1+k×100

[2] = system: AGP; assay: UV titration (Benesi–Hildebrand) with AGP; assay type: binding, human; settings: n = 3, 1 μM AGP, pH 7.4 phosphate buffer, 24 °C, 278 nm; for Kd: human, pH 7.4, UV titration, read-out: logKAGP ± Stdev (logarithm of stability constant) (converted)
Protocol: (§2) The UV-Vis absorption assay is a straightforward and relatively simple method to examine the interactions between small molecules and macromolecules. Changes in the structure of the protein caused by the interacting ligand can lead to alterations in the absorption spectrum. […] Fixed wavelength measurements were conducted at the absorption maxima of AGP and HSA. […] The change in the absorbance and wavelength maximum in the UV spectra during the titration refers to the complex formation between proteins and PPIs. The Benesi–Hildebrand method was used to determine the stability constants based on Equation (7).
(§3) The absorption spectra were recorded on a Jasco V-750 spectrophotometer (Jasco, Tokyo, Japan) at 24 °C using 1.0 cm path-length quartz cuvettes. Then, 1 μM HSA and AGP were dissolved in a sodium phosphate buffer solution (pH 7.4; 0.1 M) and their concentration was kept constant. The PPIs were dissolved in DMSO, and further diluted with the AGP or HSA solution. Next, 1000 μL of 1 μM HSA and AGP solutions was titrated with the PPI stock solution in 1 μL steps. The concentration of the PPIs was set to 4.00, 7.98, 11.96, 15.94, 19.90, 23.86, 27.81, and 31.75 μM. The binding constants were determined using the Benesi–Hildebrand equation:(7) A0/A−A0=εPPI/εAPPI−εPPI+εPPI/εAPPI−εPPI×1/K×[C] where A0 is the absorbance of the HSA or AGP at 278 nm, A is the absorbance of the formed complex also at 278 nm, εPPI is the extinction coefficient of the actual PPI, εAPPI is the extinction coefficient of the albumin or AGP and PPI complex, K is the binding coefficient, and [C] is the concentration of the investigated PPI. The plot of A0/A − A0 versus C^−1 has a slope of K^−1. All experiments were performed in triplicate.

[3] = molecular target: human serum albumin (HSA) (Homo sapiens, UniProt P02768); assay: Bound percentage by HPLC on HSA column, extrapolation to zero organic modifier; assay type: in vitro ADME; settings: for Bound percentage (b%), average: average of IPA, EtOH, MeOH
human serum albumin (HSA), sequence (P02768 25-609): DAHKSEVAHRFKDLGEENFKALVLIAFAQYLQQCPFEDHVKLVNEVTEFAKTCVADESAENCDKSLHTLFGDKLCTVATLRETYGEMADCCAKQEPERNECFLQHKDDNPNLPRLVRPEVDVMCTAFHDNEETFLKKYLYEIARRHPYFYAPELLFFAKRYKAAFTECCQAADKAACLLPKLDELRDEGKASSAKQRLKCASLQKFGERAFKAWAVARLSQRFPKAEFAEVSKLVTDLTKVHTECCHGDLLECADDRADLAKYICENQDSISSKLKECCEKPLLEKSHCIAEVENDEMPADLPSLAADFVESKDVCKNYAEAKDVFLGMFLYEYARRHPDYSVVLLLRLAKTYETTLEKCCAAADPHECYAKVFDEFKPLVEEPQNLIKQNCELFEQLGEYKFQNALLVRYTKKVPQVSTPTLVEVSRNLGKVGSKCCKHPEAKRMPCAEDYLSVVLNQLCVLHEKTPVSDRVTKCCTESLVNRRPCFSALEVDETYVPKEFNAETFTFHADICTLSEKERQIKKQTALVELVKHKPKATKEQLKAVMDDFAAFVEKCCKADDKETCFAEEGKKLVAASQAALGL
Protocol: as §1
Chromatographic measurements were carried out on two separate HPLC systems. The AGP binding study was performed on a Waters 2695e chromatographic system paired with a Waters 2996 PDA detector, controlled by Empower 3 FR5 (Waters Corp., Milford, MA, USA), while the HSA binding study was performed on an Agilent 1100 HPLC system, consisting of an inline degasser (G1322A), a quaternary pump (G1311A), an automatic injector (G1329A) paired with sample thermostat (G1330A), a column thermostat (G1316A), and a diode array detector (G1315A) with Agilent Chemstation B04.03-SP2 software (Agilent, Bronnwald, Germany). For the binding studies, two protein-based chiral stationary phases were utilized. The chromatographic binding study for AGP was conducted on a ChromTech Chiral-AGP column (150 mm × 4.0 mm; ChromTech Ltd., Congleton, UK), while the binding study for HSA was performed on a Daicel Chiralpak HSA column (50 mm × 4.0 mm; Daicel Corp., Osaka, Japan). The detection wavelength was 210 nm for all measurements. The stock solutions of PPIs were prepared at a concentration of 1 mg/mL in MeOH. Subsequent dilutions were prepared using water. The injected samples were mixed and diluted from the stock solutions. The final concentration for the eutomer was 0.2 mg/mL, and for the distomer, it was 0.1 mg/mL. A volume of 2 μL was injected. To mitigate the instability of PPIs in aqueous solutions, the samples were kept at a temperature of 4 °C. Cooling the samples to 4 °C prevented significant decomposition for a period of 24 h. After 24 h, new samples were prepared for injection. Chromatographic parameters were calculated based on the following equations. The retention factor (k) was calculated as:(1) k=(tr−t0)/t0 where tr is the retention time of the investigated analyte, and t0 is the dead time, determined as the first peak appearance in the chromatogram. Resolution was calculated based on the following equation:(2) Rs=2(t2−t1)/(w1+w2) where t2 and t1 are the retention times of the second and first eluted enantiomers, respectively, while w is the peak width. The separation factor (α) was calculated as follows:(3) α=k2/k1 where k1 and k2 are the retention factors of the first- and second-eluting enantiomers, respectively. The k values were also used to calculate the protein-bound percentage (b%) using Equation (4):(4) b%=k/1+k×100

[4] = molecular target: T1, HSA (Homo sapiens, UniProt P02768); assay: UV titration (Benesi–Hildebrand) with HSA; assay type: binding; settings: n = 3, 1 μM HSA, pH 7.4 phosphate buffer, 24 °C, 278 nm, read-out: logKHSA ± Stdev. (logarithm of stability constant) (converted)
T1 construct: purchased Sigma-Aldrich
T1 sequence (P02768 25-609): as above
Protocol: as §2, §3

[5] = molecular target: T1, HSA; settings: ref [43]; cited from earlier work
[6] = molecular target: BSA; settings: racemic, ref [39]; cited from earlier work
[7] = molecular target: T1, HSA; settings: ref [41]; cited from earlier work
[8] = extrapolation to zero percent EtOH
[9] = extrapolation to zero percent IPA
[10] = extrapolation to zero percent MeOH

Compound | Bound percentage (b%), average [1] | Bound percentage (b%) [1, 8] | Bound percentage (b%) [1, 9] | Bound percentage (b%) [1, 10] | logKAGP ± Stdev (logarithm of stability constant) ([2]; UV titration) | Kd [2] | Bound percentage (b%), average [3] | Bound percentage (b%) [3, 8] | Bound percentage (b%) [3, 9] | Bound percentage (b%) [3, 10] | Kd [4] | logK [5] | logK [6] | logK [7]
COCCCOc1ccnc(C[S@@+]([O-])c2nc3ccccc3[nH]2)c1C [R-rabeprazole, dexrabeprazole] | 96.78% and 96.78 ± 1.77% | 96.69% | 98.60% | 95.07% | 4.59 ± 0.03 | 31.6 µM | 88.84% and 88.84 ± 0.59% | 88.85% | 88.24% | 89.42% | 46.8 µM | – | – | –
COCCCOc1ccnc(C[S@+]([O-])c2nc3ccccc3[nH]2)c1C [S-rabeprazole] | 97.98% and 97.98 ± 1.51% | 98.17% | 99.39% | 96.39% | – | 17.4 µM | 88.84% and 88.84 ± 0.59% | 88.85% | 88.24% | 89.42% | 38 µM | – | – | –
COc1ccc2[nH]c([S@+]([O-])Cc3ncc(C)c(OC)c3C)nc2c1 [R-omeprazole] | – | – | – | – | – | 20.4 µM | 91.76% and 91.76 ± 1.08% | 92.97% | 91.15% | 91.03% | 33.9 µM | 3.50 | – | –
COc1ccnc(C[S+]([O-])c2nc3ccc(OC(F)F)cc3[nH]2)c1OC (centres unmarked) [Pantoprazole] | – | – | – | – | – | – | – | – | – | – | – | – | 5.04 | –
COc1ccnc(C[S+]([O-])c2nc3cc(-n4cccc4)ccc3[nH]2)c1C (centres unmarked) [Ilaprazole] | – | – | – | – | – | – | – | – | – | – | – | – | 5.63 | –
COc1ccc2nc([S@@+]([O-])Cc3ncc(C)c(OC)c3C)[nH]c2c1 [S-omeprazole, esomeprazole] | – | – | – | – | – | 33.9 µM | 91.76% and 91.76 ± 1.08% | 92.97% | 91.15% | 91.03% | 95.5 µM | 3.73 | – | 4.70
